Legend:
Test in all cases: in vitro antibacterial evaluation, MIC by broth dilution
Assay type in all cases: cell-based
[1] = test system: Enterococcus sp.; conditions: broth dilution, 18 hours at 35° C.
Procedure, shortened: (§1)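 Read-out: the lowest concentration at which the test strain fails to grow. Serial dilutions (64-0.06 μg/mL) in Muller-Hinton II […], 5×10^5 CFU/mL inoculum, NCCLS M7-A2 procedure.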

[2] = test system: Staphylococcus sp.; conditions: broth dilution, 18 hours at 35° C.; for MIC Staphylococcus aureus (ATCC 29213): strain ATCC 29213; for MIC Staphylococcus aureus (GC 1131): strain GC 1131; for MIC Staphylococcus aureus (GC 3051): strain GC 3051; for MIC Staphylococcus aureus (GC 3053): strain GC 3053; for MIC Staphylococcus aureus (GC 4541): strain GC 4541; for MIC Staphylococcus aureus (GC 4542): strain GC 4542; for MIC Staphylococcus aureus-SMITH (GC 4543): strain GC 4543; for MIC Staphylococcus aureus (GC 4544): strain GC 4544; for MIC Staphylococcus aureus (GC 4545): strain GC 4545; for MIC Staphylococcus haemolyticus (GC 4546): strain GC 4546; for MIC Coagulase Negative Staphylococcus (GC 4547): strain GC 4547; for MIC Coagulase Negative Staphylococcus (GC 4548): strain GC 4548; for MIC Coagulase Negative Staphylococcus (GC 4549): strain GC 4549; for MIC Coagulase Negative Staphylococcus (GC 4551): strain GC 4551
Procedure, shortened: as §1

[3] = test system: Streptococcus sp.; conditions: broth dilution, 18 hours at 35° C.
Procedure, shortened: as §1

[4] = test system: Escherichia coli; conditions: 18 hours at 35° C.

CC(c1ccccc1)C1NC(=O)CNC(=O)C(CO)NC(=O)C(C(O)C2CNC(=N)N2C2OC(CO)C(O)C(O)C2O)NC(=O)C(C(O)C2CNC(=N)N2)NC(=O)C(Cc2ccc(OC3OC(CO)C(OC4OC5COC6(CCSCC6)OC5C(O)C4O)C(O)C3O)cc2)NC1=O (stereo not shown) [Example 217]
16 µg/mL: MIC Enterococcus avium (GC 4558) [1] | MIC Enterococcus faecalis (ATCC 29212) [1] | MIC Enterococcus faecalis (GC 2242) [1] | MIC Enterococcus faecalis (GC 2691) [1] | MIC Enterococcus faecalis (GC 4552) [1] | MIC Enterococcus faecalis (GC 6189) [1] | MIC Enterococcus faecium (GC 2243) [1] | MIC Enterococcus faecium (GC 4556) [1] | MIC Enterococcus faecalis (ATCC 29212) ([1]; inoculum 5×10^5 CFU/mL, strain ATCC 29212) | MIC Enterococcus faecalis (GC 2242) ([1]; inoculum 5×10^5 CFU/mL, strain GC 2242) | MIC Enterococcus faecium (GC 2243) ([1]; inoculum 5×10^5 CFU/mL, strain GC 2243) | MIC Enterococcus faecalis (GC 2691) ([1]; inoculum 5×10^5 CFU/mL, strain GC 2691) | MIC Enterococcus faecalis (GC 4552) ([1]; inoculum 5×10^5 CFU/mL, strain GC 4552) | MIC Enterococcus faecium (GC 4556) ([1]; inoculum 5×10^5 CFU/mL, strain GC 4556) | MIC Enterococcus avium (GC 4558) ([1]; inoculum 5×10^5 CFU/mL, strain GC 4558) | MIC Enterococcus faecalis (GC 6189) ([1]; inoculum 5×10^5 CFU/mL, strain GC 6189)
4 µg/mL: MIC Staphylococcus aureus (ATCC 29213) [2] | MIC Staphylococcus aureus (GC 1131) [2] | MIC Staphylococcus aureus (GC 3051) [2] | MIC Staphylococcus aureus (GC 4541) [2] | MIC Staphylococcus aureus (GC 4542) [2] | MIC Staphylococcus aureus (GC 4545) [2] | MIC Coagulase Negative Staphylococcus (GC 4547) [2]
1 µg/mL: MIC Coagulase Negative Staphylococcus (GC 4548) [2] | MIC Streptococcus pneumoniae (ATCC 6301) [3] | MIC Streptococcus pyogenes (GC 4563) [3] | MIC Streptococcus pneumoniae (ATCC 6301) ([3]; inoculum 5×10^5 CFU/mL, strain ATCC 6301) | MIC Streptococcus pyogenes (GC 4563) ([3]; inoculum 5×10^5 CFU/mL, strain GC 4563)
0.5 µg/mL: MIC Streptococcus pneumoniae (GC 4565) [3] | MIC Streptococcus pneumoniae (GC 4565) ([3]; inoculum 5×10^5 CFU/mL, strain GC 4565)
32 µg/mL: MIC Enterococcus faecalis (GC 3059) [1] | MIC Enterococcus faecalis (GC 4553) [1] | MIC Enterococcus faecalis (GC 4554) [1] | MIC Enterococcus faecalis (GC 3059) ([1]; inoculum 5×10^5 CFU/mL, strain GC 3059) | MIC Enterococcus faecalis (GC 4553) ([1]; inoculum 5×10^5 CFU/mL, strain GC 4553) | MIC Enterococcus faecalis (GC 4554) ([1]; inoculum 5×10^5 CFU/mL, strain GC 4554) | MIC Escherichia coli (GC 4559) [4]
0.25 µg/mL: MIC Streptococcus pneumoniae (GC 1894) [3] | MIC Streptococcus pneumoniae (GC 1894) ([3]; inoculum 5×10^5 CFU/mL, strain GC 1894)
2 µg/mL: MIC Staphylococcus aureus-SMITH (GC 4543) [2] | MIC Staphylococcus haemolyticus (GC 4546) [2] | MIC Coagulase Negative Staphylococcus (GC 4549) [2] | MIC Streptococcus agalactiae (GC 4564) [3] | MIC Streptococcus agalactiae (GC 4564) ([3]; inoculum 5×10^5 CFU/mL, strain GC 4564) | MIC Escherichia coli (GC 4560) [4]
8 µg/mL: MIC Enterococcus faecium (GC 4557) [1] | MIC Enterococcus faecium (GC 4557) ([1]; inoculum 5×10^5 CFU/mL, strain GC 4557) | MIC Staphylococcus aureus (GC 3053) [2] | MIC Staphylococcus aureus (GC 4544) [2] | MIC Coagulase Negative Staphylococcus (GC 4551) [2]
64 µg/mL: MIC Escherichia coli (ATCC 25922) [4]

CC(c1ccccc1)C1NC(=O)CNC(=O)C(CO)NC(=O)C(C(O)C2CN(Cc3ccccc3)C(=NCc3ccccc3)N2C2OC(CO)C(O)C(O)C2O)NC(=O)C(C(O)C2CN(Cc3ccccc3)C(=NCc3ccccc3)N2Cc2ccccc2)NC(=O)C(Cc2ccc(OC3OC(CO)C(OC4OC(CO)C(O)C(O)C4O)C(O)C3O)cc2)NC1=O (stereo not drawn) [Example 62, Cyclo[glycyl-β-methylphenylalanyl-O-(4-O-hexopyranosylhexopyranosyl)tyrosyl-3-[1,3-dibenzyl-2-(benzylimino)imidazolidin-4-yl]seryl-3-[1-benzyl-2-(benzylimino)-3-hexopyranosylimidazolidin-4-yl]serylseryl]]
>128 µg/mL: MIC Enterococcus faecalis (ATCC 29212) ([1]; Enterococcus faecalis (ATCC 29212)) | MIC Enterococcus faecalis (GC 4552) ([1]; Enterococcus faecalis (GC 4552)) | MIC Enterococcus faecalis (GC 4554) ([1]; Enterococcus faecalis (GC 4554)) | MIC Enterococcus faecalis (GC 6189) ([1]; Enterococcus faecalis (GC 6189)) | MIC Enterococcus faecium (GC 2243) ([1]; Enterococcus faecium (GC 2243)) | MIC Enterococcus faecium (GC 4556) ([1]; Enterococcus faecium (GC 4556)) | MIC Enterococcus faecalis (ATCC 29212) [1] | MIC Enterococcus faecalis (GC 2242) [1] | MIC Enterococcus faecalis (GC 2691) [1] | MIC Enterococcus faecalis (GC 3059) [1] | MIC Enterococcus faecalis (GC 4552) [1] | MIC Enterococcus faecalis (GC 4554) [1] | MIC Enterococcus faecalis (GC 6189) [1] | MIC Enterococcus faecium (GC 2243) [1] | MIC Enterococcus faecium (GC 4556) [1] | MIC Enterococcus faecalis (GC 2242) ([1]; strain GC 2242) | MIC Enterococcus faecalis (GC 2691) ([1]; strain GC 2691) | MIC Enterococcus faecalis (GC 3059) ([1]; strain GC 3059) | MIC Staphylococcus aureus (ATCC 29213) [2] | MIC Staphylococcus aureus (GC 1131) [2] | MIC Staphylococcus aureus (GC 3051) [2] | MIC Staphylococcus aureus (GC 3053) [2] | MIC Staphylococcus aureus (GC 4541) [2] | MIC Staphylococcus aureus (GC 4542) [2] | MIC Staphylococcus aureus-SMITH (GC 4543) [2] | MIC Staphylococcus aureus (GC 4544) [2] | MIC Staphylococcus aureus (GC 4545) [2] | MIC Staphylococcus haemolyticus (GC 4546) [2] | MIC Coagulase Negative Staphylococcus (GC 4547) [2] | MIC Coagulase Negative Staphylococcus (GC 4548) [2] | MIC Coagulase Negative Staphylococcus (GC 4549) [2] | MIC Coagulase Negative Staphylococcus (GC 4551) [2] | MIC Coagulase Negative Staphylococcus (GC 6257) ([2]; strain GC 6257) | MIC Streptococcus agalactiae (GC 4564) [3] | MIC Streptococcus pyogenes (GC 4563) [3] | MIC Streptococcus pyogenes (GC 4563) ([3]; strain GC 4563) | MIC Streptococcus agalactiae (GC 4564) ([3]; strain GC 4564) | MIC Escherichia coli (ATCC 25922) [4] | MIC Escherichia coli (GC 4559) [4]
64 µg/mL: MIC Enterococcus faecium (GC 4557) ([1]; Enterococcus faecium (GC 4557)) | MIC Enterococcus faecium (GC 4557) [1] | MIC Streptococcus pneumoniae (GC 1894) [3] | MIC Streptococcus pneumoniae (GC 1894) ([3]; strain GC 1894)
128 µg/mL: MIC Enterococcus avium (GC 4558) ([1]; Enterococcus avium (GC 4558)) | MIC Enterococcus faecalis (GC 4553) ([1]; Enterococcus faecalis (GC 4553)) | MIC Enterococcus avium (GC 4558) [1] | MIC Enterococcus faecalis (GC 4553) [1] | MIC Streptococcus pneumoniae (ATCC 6301) [3] | MIC Streptococcus pneumoniae (GC 4565) [3] | MIC Streptococcus pneumoniae (ATCC 6301) ([3]; strain ATCC 6301) | MIC Streptococcus pneumoniae (GC 4565) ([3]; strain GC 4565)
4 µg/mL: MIC Escherichia coli (GC 4560) [4]

Source: patent US6914045B2, “Glycopeptide antibiotics” (Wyeth Holdings Corporation, priority 2001, dated 2005)
